Laboratory results published in PubChem BioAssay (NCI).
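Compound exposure: 48 hours, 5 concentrations, 96-well plates. Abbreviation: GI50, concentration required for 50% inhibition of growth. TGI: total growth inhibition.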

Key:
Assay in all cases: DTP human tumour cell line panel, 48 h
[1] = system: OVCAR-3 ovarian
[2] = system: M14 melanoma
[3] = system: IGROV1 ovarian
[4] = system: T-47D breast
[5] = system: A498 renal
[6] = system: SNB-19 CNS
[7] = system: PC-3 prostate
[8] = system: UACC-62 melanoma
[9] = system: U251 CNS
[10] = system: OVCAR-8 ovarian
[11] = system: OVCAR-5 ovarian
[12] = system: EKVX NSCLC
[13] = system: CCRF-CEM leukemia
[14] = system: MOLT-4 leukemia
[15] = system: SF-295 CNS
[16] = system: UACC-257 melanoma
[17] = system: NCI/ADR-RES ovarian
[18] = system: MDA-MB-231 breast
[19] = system: BT-549 breast
[20] = system: 786-0 renal
[21] = system: MCF7 breast
[22] = system: HS 578T breast
[23] = system: COLO 205 colon
[24] = system: SN12C renal
[25] = system: UO-31 renal
[26] = system: HCT-116 colon
[27] = system: HT29 colon
[28] = system: DU-145 prostate
[29] = system: MDA-MB-435
[30] = system: MALME-3M melanoma
[31] = system: NCI-H522 lung
[32] = system: SK-OV-3 ovarian
[33] = system: LOX IMVI melanoma
[34] = system: SNB-75 CNS
[35] = system: RPMI-8226 leukemia
[36] = system: A549 NSCLC
[37] = system: SW-620 colon
[38] = system: KM12 colon
[39] = system: SK-MEL-28 melanoma
[40] = system: NCI-H23 lung
[41] = system: HCT-15 colon
[42] = system: HL-60(TB) leukemia
[43] = system: ACHN renal
[44] = system: NCI-H226 lung
[45] = system: SF-539 CNS
[46] = system: SK-MEL-2 melanoma
[47] = system: HCC-2998 colon
[48] = system: SK-MEL-5 melanoma
[49] = system: CAKI-1 renal
[50] = system: HOP-62 NSCLC
[51] = system: OVCAR-4 ovarian
[52] = system: SF-268 CNS
[53] = system: HOP-92 NSCLC
[54] = system: NCI-H460 lung
[55] = system: K-562 leukemia
[56] = system: TK-10 renal
[57] = system: SR leukemia
[58] = system: RXF 393 renal

In the case of `COc1ccc(-c2cn(-c3ccccc3)c(-c3ccccc3)n2)cc1OC`, the GI50 [1] is reported as 2.2 µM, the TGI [1] is reported as 5.07 µM and the GI50 [2] is reported as 5.69 µM. The TGI [2] was 20 µM, the GI50 [3] was 2.72 µM and the TGI [3] was 9.3 µM. For the same compound, the GI50 [4] was 1.75 µM, the TGI [4] was 20.2 µM and the GI50 [5] was 18.7 µM. It also gave a TGI [5] of 34.8 µM, a GI50 [6] of 7.5 µM and a TGI [6] of 21.1 µM. The GI50 [7] was 5.53 µM, the TGI [7] was 24.7 µM and the GI50 [8] was 10.4 µM. It also gave a TGI [8] of 22.6 µM, a GI50 [9] of 2.46 µM and a TGI [9] of 10.6 µM. It also gave a GI50 [10] of 3.01 µM, a TGI [10] of 10.8 µM and a GI50 [11] of 7.33 µM. The TGI [11] was 20.9 µM, the GI50 [12] was 12.1 µM and the TGI [12] was 29.1 µM. It also gave a GI50 [13] of 2.16 µM, a TGI [13] of 5.98 µM and a GI50 [14] of 2.96 µM. It also gave a TGI [14] of 10.9 µM, a GI50 [15] of 3.5 µM and a TGI [15] of 17.1 µM. For the same compound, the GI50 [16] was 4.84 µM, the TGI [16] was 16.8 µM and the GI50 [17] was 4.01 µM. It also gave a TGI [17] of 30.2 µM, a GI50 [18] of 10.8 µM and a TGI [18] of 23.5 µM. It also gave a GI50 [19] of 2.86 µM, a TGI [19] of 18.5 µM and a GI50 [20] of 3.56 µM. For the same compound, the TGI [20] was 13.5 µM, the GI50 [21] was 2.72 µM and the TGI [21] was 13.1 µM. For the same compound, the GI50 [22] was 5.68 µM, the TGI [22] was > 100 µM and the GI50 [23] was 2.68 µM. It also gave a TGI [23] of 12.3 µM, a GI50 [24] of 5.2 µM and a TGI [24] of 17.8 µM. It also gave a GI50 [25] of 2.7 µM, a TGI [25] of 14.4 µM and a GI50 [26] of 2.84 µM. The TGI [26] was 11.9 µM, the GI50 [27] was 4.5 µM and the TGI [27] was > 100 µM. It also gave a GI50 [28] of 2.9 µM, a TGI [28] of 7.92 µM and a GI50 [29] of 2.94 µM. For the same compound, the TGI [29] was 12.5 µM, the GI50 [30] was 9.17 µM and the TGI [30] was 22.7 µM. For the same compound, the GI50 [31] was 6.63 µM, the TGI [31] was 19.6 µM and the GI50 [32] was 7.44 µM. It also gave a TGI [32] of 20.9 µM, a GI50 [33] of 3.08 µM and a TGI [33] of 11.7 µM. The GI50 [34] was 13.6 µM, the TGI [34] was 28.5 µM and the GI50 [35] was 1.31 µM. The TGI [35] was 3.59 µM, the GI50 [36] was 3.71 µM and the TGI [36] was 16 µM. The GI50 [37] was 3.69 µM, the TGI [37] was 18.5 µM and the GI50 [38] was 2.4 µM. It also gave a TGI [38] of 6.41 µM, a GI50 [39] of 12 µM and a TGI [39] of 26.2 µM. It also gave a GI50 [40] of 5.51 µM, a TGI [40] of 25 µM and a GI50 [41] of 2.62 µM. For the same compound, the TGI [41] was 11.2 µM, the GI50 [42] was 2.34 µM and the TGI [42] was 6.7 µM. The GI50 [43] was 9.55 µM, the TGI [43] was 21.4 µM and the GI50 [44] was 15 µM. The TGI [44] was 40.3 µM, the GI50 [45] was 2.14 µM and the TGI [45] was 6.16 µM. For the same compound, the GI50 [46] was 7.06 µM, the TGI [46] was 22.5 µM and the GI50 [47] was 6.39 µM. It also gave a TGI [47] of 20.7 µM, a GI50 [48] of 8.03 µM and a TGI [48] of 20.7 µM. For the same compound, the GI50 [49] was 11.2 µM, the TGI [49] was 27 µM and the GI50 [50] was 4.44 µM. The TGI [50] was 17.9 µM, the GI50 [51] was 10.9 µM and the TGI [51] was 32.9 µM. It also gave a GI50 [52] of 3.35 µM, a TGI [52] of 13.5 µM and a GI50 [53] of 1.82 µM. The TGI [53] was 10.8 µM, the GI50 [54] was 3.57 µM and the TGI [54] was 14.9 µM. For the same compound, the GI50 [55] was 3.21 µM, the TGI [55] was > 100 µM and the GI50 [56] was 12.2 µM. The TGI [56] was 26.1 µM.
With `Cc1cc2c(c(C=NCc3ccccc3)c1)OC1(C=C2)Oc2ccccc2C(=O)N1C` (configuration not stated) the TGI [57] was 49.9 µM, the TGI [1] was > 100 µM and the TGI [2] was > 100 µM. It also gave a TGI [3] of 68.1 µM, a TGI [4] of 45.9 µM and a TGI [5] of 77.6 µM. For the same compound, the TGI [6] was > 100 µM, the TGI [7] was 75.3 µM and the TGI [8] was 48.2 µM. The TGI [9] was 80.3 µM, the TGI [10] was 35.6 µM and the TGI [11] was 56 µM. The TGI [12] was 57.6 µM, the TGI [13] was 36.3 µM and the TGI [14] was 36.5 µM. The TGI [15] was > 100 µM, the TGI [16] was 67 µM and the TGI [17] was 48 µM. For the same compound, the TGI [18] was 78.1 µM, the TGI [19] was 62.5 µM and the TGI [20] was > 100 µM. The TGI [21] was > 100 µM, the TGI [22] was 63.6 µM and the TGI [23] was 39.8 µM. It also gave a TGI [24] of 78 µM, a TGI [25] of 40.9 µM and a TGI [26] of 61.6 µM. For the same compound, the TGI [27] was 51.7 µM, the TGI [28] was 70.4 µM and the TGI [29] was 78.4 µM. The TGI [32] was > 100 µM, the TGI [33] was 34.5 µM and the TGI [34] was 75.8 µM. For the same compound, the TGI [35] was 50.4 µM, the TGI [36] was > 100 µM and the TGI [37] was > 100 µM. For the same compound, the TGI [38] was 64.5 µM, the TGI [39] was > 100 µM and the TGI [40] was 69.6 µM. It also gave a TGI [41] of 45.4 µM, a TGI [42] of 60.2 µM and a TGI [43] of 69.7 µM. For the same compound, the TGI [44] was 42.9 µM, the TGI [46] was 62.6 µM and the TGI [47] was 57.4 µM. The TGI [48] was 50.3 µM, the TGI [49] was 66.5 µM and the TGI [50] was > 100 µM. For the same compound, the TGI [51] was 69.9 µM, the TGI [52] was 76.3 µM and the TGI [53] was 43 µM. The TGI [58] was 55.9 µM, the TGI [54] was 55.4 µM and the TGI [55] was > 100 µM. It also gave a TGI [56] of 79.7 µM.
